Values after ≈ are worked out from the molar mass of the structure shown.

Experimental findings from ChEMBL document CHEMBL3044970, “Isoniazid: the magic molecule” (2012) are described below.

What all share (type): functional
Test [1] has as its system Mycobacterium tuberculosis. As to the kind of experiment: Antimicrobial activity against INH-resistant Mycobacterium tuberculosis.
In test [2] the test system is Mycobacterium tuberculosis. As to the kind of experiment: Antimicrobial activity against INH-resistant Mycobacterium tuberculosis by agar dilution method relative to isonicotinoyl hydrazide. (Agar dilution tests growth on a series of plates holding different concentrations.)
Test [3] in a line: Selectivity ratio of MIC for Mycobacterium tuberculosis H37Rv to MIC for INH-resistant Mycobacterium tuberculosis clinical isolate.
The subject of test [4] is Mycobacterium tuberculosis. As to the kind of experiment: Ratio of INH MIC to compound MIC for INH-resistant Mycobacterium tuberculosis.
The subject of test [5] is Mycobacterium tuberculosis. In words: Antimicrobial activity against drug-resistant Mycobacterium tuberculosis infected in macrophages.

`O=C(NNC(=S)Nc1ccccc1C(F)(F)F)c1ccncc1` yielded an MIC in test [1] of 0.58 µM (≈ 0.197 µg/mL). Moreover, the Ratio in test [2] is reported as 157.
As for `O=C(c1ccncc1)N1N=C(c2ccco2)CC1(O)C(F)(F)F` (stereo unspecified), the Selectivity ratio in test [3] stood at 2.
For `COc1cc(C2=NN(C(=O)c3ccncc3)C(c3ccc(O)cc3)C2)ccc1OCC(=O)O` (stereo unspecified), the Ratio in test [4] is 78. In addition, the MIC in test [1] was 0.12 µM (≈ 0.0537 µg/mL).
Regarding `C/C(=N\NC(=O)c1ccncc1)c1cccc(F)c1`, the MIC in test [5] was under 0.05 µg/mL.
